Like-named read-outs stand apart in the source and are kept apart here. Marks after values point to notes of the source that are not given here.
What was measured:
[1] = tested on: advanced TP53 wild-type (WT) leukemias (AML, ALL); assay type: in vivo, human
From the text: Tables 5 and 6 and FIG. 6 provide efficacy information for dosing regimen 1B in comparison to other regimens.

platelets = assay: PK/PD model of thrombocytopenia (modeled platelet kinetic profiles); parameters: species or system human; conditions: regimen 1B (150 mg)
From the text: Based on individual PK and platelet counts data overtime a PK/PD model was established.
PK model: 1 compartment with biphasic absorption.
PD model: Adjusted Friberg model for thrombocytopenia including PLT transfusions and effect on HDM201 on proliferative cells and regulations.
The platelet kinetic profiles shown in FIG. 5 are modeled based on the following doses as tested in each regimen (in order from top to bottom in FIG. 5): […]

[2] = AML CR patient, 1A 250 mg, March 2017
[3] = AML CR patient, 1A 400 mg, March 2017
[4] = AML CR patient, 2C 45 mg, March 2017
[5] = AML CRi patient, 1B 150 mg, March 2017
[6] = CR, Reg 1A 250 mg, person, September 2017
[7] = CR, Reg 1A 400 mg, Male/71, September 2017
[8] = CR, Reg 1B 120 mg, Male/67, September 2017
[9] = CR, Reg 2C 45 mg, Male/76, September 2017
[10] = CR, Reg 2C 45 mg, person, September 2017
[11] = CRi, Reg 1A 250 mg, person, September 2017
[12] = CRi, Reg 1B 150 mg, person, September 2017
[13] = CRi, Reg 2C 45 mg, Male/70, September 2017
[14] = CRi, Reg 2C 45 mg, Male/79, September 2017
[15] = CRi, Reg 2C 45 mg, person one, September 2017
[16] = CRi, Reg 2C 45 mg, person three, September 2017
[17] = Dose escalation, Regimen 2C 45 mg (8 patients), September 2017
[18] = Dose expansion, Regimen 2C 45 mg (17 patients), September 2017
[19] = Regimen 1A (n = 15), March 2017

Structure (SMILES): COc1ncc(-c2nc3c(n2C(C)C)[C@H](c2ccc(Cl)cc2)N(c2cc(Cl)cn(C)c2=O)C3=O)c(OC)n1 [HDM201, (S)-5-(5-Chloro-1-methyl-2-oxo-1,2-dihydro-pyridin-3-yl)-6-(4-chloro-phenyl)-2-(2,4-dimethoxy-pyrimidin-5-yl)-1-isopropyl-5,6-dihydro-1H-pyrrolo[3,4-d]imidazol-4-one]
- Count recovery time from C1D1 [1, 2]: 48 days
- Duration of CR/CRi [1, 2]: 50 days
- Time to CR/CRi [1, 2]: 7 weeks
- Count recovery time from C1D1 [1, 3]: 40 days
- Duration of CR/CRi [1, 3]: 23 days
- Time to CR/CRi [1, 3]: 6 weeks
- Count recovery time from C1D1 [1, 4]: 32 days
- Duration of CR/CRi [1, 4]: 152 days
- Time to CR/CRi [1, 4]: 5 weeks
- Duration of CR/CRi [1, 5]: 51 days
- Time to CR/CRi [1, 5]: 11 weeks
- Duration of CR/CRi ([1]; AML CRi patient, 2C 45 mg, donor five, March 2017, patient withdrew consent while on CRi): 1* days
- Duration of CR/CRi ([1]; AML CRi patient, 2C 45 mg, donor two, March 2017, patient ongoing at data cut off): 1^† days
- CR/CRi results, number of patients ([1]; AML patients, Regimen 1B, September 2017): The already observed 2 CR/CRi results out of the small number of patients treated so far demonstrate the strong antitumor activity of the HDM201 in AML patients when dosed according to Regimen 1B.
- Count recovery time from C1D1 [1, 6]: 48 days
- Duration of CR/CRi [1, 6]: 50 days
- Time to CR/CRI [1, 6]: 7 weeks
- Count recovery time from C1D1 [1, 7]: 40 days
- Duration of CR/CRi [1, 7]: 23 days
- Time to CR/CRI [1, 7]: 6 weeks
- Count recovery time from C1D1 [1, 8]: 28 days
- Duration of CR/CRi [1, 8]: 45 days
- Time to CR/CRI [1, 8]: 4 weeks
- Count recovery time from C1D1 [1, 9]: 32 days
- Duration of CR/CRi [1, 9]: 152 days
- Time to CR/CRI [1, 9]: 5 weeks
- Count recovery time from C1D1 [1, 10]: 30 days
- Duration of CR/CRi [1, 10]: 41 days
- Time to CR/CRI [1, 10]: 4 weeks
- Duration of CR/CRi [1, 11]: 67 days
- Time to CR/CRI [1, 11]: 3 weeks
- Duration of CR/CRi [1, 12]: 51 days
- Time to CR/CRI [1, 12]: 11 weeks
- Duration of CR/CRi [1, 13]: 1 days
- Time to CR/CRI [1, 13]: 12 weeks
- Duration of CR/CRi [1, 14]: 62 days
- Time to CR/CRI [1, 14]: 4 weeks
- Duration of CR/CRi [1, 15]: 105 days
- Time to CR/CRI [1, 15]: 4 weeks
- Duration of CR/CRi [1, 16]: 40 days
- Time to CR/CRI [1, 16]: 7 weeks
- CR, number of patients ([1]; Dose escalation, Regimen 1A 250 mg (3 patients), September 2017): 250 mg (3): 1 CR
- CR, number of patients ([1]; Dose escalation, Regimen 1A 400 mg (9 patients), September 2017): 400 mg (9): 1 CR
- CR, number of patients ([1]; Dose escalation, Regimen 1B 120 mg (6 patients), September 2017): 120 mg (6): 1 CR
- CRi, number of patients ([1]; Dose escalation, Regimen 1B 150 mg (6 patients), September 2017): 150 mg (6): 1 CRi
- CR, number of patients [1, 17]: 1
- CRi, number of patients [1, 17]: 3
- CRi, number of patients ([1]; Dose expansion, Regimen 1A 250 mg, 6 pts, September 2017): 1 CRi
- CR, number of patients [1, 18]: 1 CR, 1CRi
- CRi, number of patients [1, 18]: 1 CR, 1CRi
- BOR: CR [1, 19]: 2 (13) n (%)
- BOR: CRi [1, 19]: 0 (0) n (%)
- ORR (CR + CRi + PR) [1, 19]: 2 (13) n (%)
- BOR: CR ([1]; Regimen 1B (n = 6), March 2017): 0 (0) n (%)
- BOR: CRi ([1]; Regimen 1B (n = 6), March 2017): 1 (17) n (%)
- ORR (CR + CRi + PR) ([1]; Regimen 1B (n = 6), March 2017): 1 (17) n (%)
- BOR: CR ([1]; Regimen 2A (n = 7), March 2017): 0 (0) n (%)
- BOR: CRi ([1]; Regimen 2A (n = 7), March 2017): 0 (0) n (%)
- ORR (CR + CRi + PR) ([1]; Regimen 2A (n = 7), March 2017): 0 (0) n (%)
- BOR: CR ([1]; Regimen 2C (n = 7), March 2017): 1 (14) n (%)
- BOR: CRi ([1]; Regimen 2C (n = 7), March 2017): 3 (43) n (%)
- ORR (CR + CRi + PR) ([1]; Regimen 2C (n = 7), March 2017): 4 (57) n (%)
- BOR: CR ([1]; Total (N = 35), March 2017): 3 (9) n (%)
- BOR: CRi ([1]; Total (N = 35), March 2017): 4 (11) n (%)
- ORR (CR + CRi + PR) ([1]; Total (N = 35), March 2017): 7 (20) n (%)
- patients with CRi ([1]; regimen 1B, hematological tumors): One patient
- platelet kinetic profile, modeled, compared among regimens with single agent activity (platelets): best overall platelet kinetic profile

From patent publication US10966978B2, “Dose and regimen for HDM2-p53 interaction inhibitors” (Novartis AG, priority 2016, dated 2021)
